The record followed here is patent US10052320B2, “Substituted quinoxalines as FGFR kinase inhibitors” (ASTEX THERAPEUTICS LIMITED, priority 2011, dated 2018).

Read-outs that look alike come from different tables or passages of the source.

For one assay, the target named is FGFR1 (h) (Homo sapiens, UniProt P11362). Kind of assay: FGFR1 (enzymatic assay), TR-FRET. Format: biochemical. To be noted: read-out: FGFR 1 pIC50 (converted). On the procedure: In a final reaction volume of 30 μL, FGFR1 (h) (25 ng/ml) was incubated with 50 mM HEPES pH 7.5, 6 mM MnCl2, 1 mM DTT, 0.1 mM Na3VO4, 0.01% Triton-X-100, 500 nM Btn-Flt3 and 5 μM ATP in the presence of compound (1% DMSO final). […] Time-Resolved Fluorescence Resonance Energy Transfer (TR-FRET) signal (ex340 nm. Em 620 nm, em 655 nm) was measured afterwards and results are expressed in RFU (Relative Fluorescence Units).
Sequence of FGFR1 (h) (P11362 22-822): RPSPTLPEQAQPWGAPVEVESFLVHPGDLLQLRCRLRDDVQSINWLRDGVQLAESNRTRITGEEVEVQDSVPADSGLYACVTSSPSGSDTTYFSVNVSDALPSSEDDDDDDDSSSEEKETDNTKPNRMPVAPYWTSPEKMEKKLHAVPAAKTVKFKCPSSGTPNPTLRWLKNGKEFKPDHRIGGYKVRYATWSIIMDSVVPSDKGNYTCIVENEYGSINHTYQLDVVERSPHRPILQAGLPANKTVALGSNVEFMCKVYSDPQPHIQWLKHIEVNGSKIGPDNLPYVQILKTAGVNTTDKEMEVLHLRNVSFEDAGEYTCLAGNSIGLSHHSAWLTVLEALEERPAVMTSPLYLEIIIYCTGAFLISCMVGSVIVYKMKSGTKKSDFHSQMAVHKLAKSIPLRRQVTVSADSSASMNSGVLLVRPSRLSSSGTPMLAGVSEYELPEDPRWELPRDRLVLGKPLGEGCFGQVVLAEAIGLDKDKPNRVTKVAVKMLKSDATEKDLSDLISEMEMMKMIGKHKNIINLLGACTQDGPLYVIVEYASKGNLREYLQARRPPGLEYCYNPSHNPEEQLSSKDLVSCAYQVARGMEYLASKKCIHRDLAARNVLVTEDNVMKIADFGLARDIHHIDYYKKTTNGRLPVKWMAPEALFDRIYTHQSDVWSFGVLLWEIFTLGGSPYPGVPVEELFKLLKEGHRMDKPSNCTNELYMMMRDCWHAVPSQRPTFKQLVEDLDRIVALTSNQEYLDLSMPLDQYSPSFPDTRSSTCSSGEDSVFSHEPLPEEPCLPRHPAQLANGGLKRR

Assay [1] deals with Ba/F3-FGFR3-transfected cells in the presence of 10 ng/ml murine IL3. Kind of assay: Ba/F3-FGFR3 (plus IL3) cellular proliferation counterscreen, Alamar Blue. Format: cell-based. To be noted: Mus musculus. In short, it runs like this:
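Ba/F3 cells transfected with FGFR3 were exposed to compound in RPMI-1640 with 10% FBS for 24 h at 37 °C, 5% CO2. Alamar Blue (resazurin) was then added for 4 h, and fluorescence was read at ex 540/em 590 nm.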

Assay [2] deals with Ba/F3-KDR-transfected cells in the presence of 10 ng/ml murine IL3. Kind of assay: Ba/F3-KDR (plus IL3) cellular proliferation counterscreen, Alamar Blue. Format: cell-based. The note with it: Mus musculus, plus 10 ng/ml murine IL3. Put shortly:
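Ba/F3-KDR cells in phenol red free RPMI-1640 with 10% FBS were exposed to compound for 24 h at 37 °C, 5% CO2. Alamar Blue (resazurin) was then added for 4 h and fluorescence read at ex 540/em 590 nm. The counterscreen ran identically with 10 ng/ml murine IL3.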

Assay [3] has as its system Ba/F3-Flt3-transfected cells in the presence of 10 ng/ml murine IL3. Nature of the assay: Ba/F3-Flt3 (plus IL3) cellular proliferation counterscreen, Alamar Blue. Format: cell-based. To be noted: Mus musculus; plus 10 ng/ml murine IL3; read-out: BAF3-FLT3 (PLUS IL3) 384 well pIC50 (converted).
For assay [4] the test system is unchanged. The description is as above. Format: cell-based. To be noted: Mus musculus; plus 10 ng/ml murine IL3; read-out: BAF3-FLT3 (PLUS IL3) 96 well pIC50 (converted).
The mark [5] stands for this setting: plus 10 ng/ml murine IL3, 384 well, read-out: BAF3-FGFR 3 (PLUS IL3) 384 well pIC50 (converted).
Where [6] appears, read: plus IL3, 96 well, read-out: BAF3-FGFR 3 (PLUS IL3) 96 well pIC50 (converted).
[7] abbreviates: read-out: BAF3-KDR (PLUS IL3) 96 well pIC50 (converted).
Where [8] appears, read: read-out: BAF3-KDR (PLUS IL3) 384 well pIC50 (converted).

`COc1cc(OC)cc(N(CC2CC2)c2ccc3ncc(-n4cnc(C)c4)nc3c2)c1` [Compound 30]: the IC50 was 0.0513 µM at FGFR1 (h); over 10 µM in assay [1] (setting [5]); over 10 µM in assay [1] (setting [6]); over 10 µM in assay [2] (setting [7]); over 10 µM in assay [2] (setting [8]); over 10 µM in assay [3]. Further, in assay [4], the IC50 is over 10 µM.
Take `COc1cc(OC)cc(N(CC2CC2)c2ccc3ncc(-c4cn(CCO)nn4)nc3c2)c1` [Compound 40]: the IC50 on FGFR1 (h) was 0.0776 µM; in assay [1] (setting [5]), over 10 µM; in assay [1] (setting [6]) it was over 10 µM; in assay [2] (setting [7]), over 10 µM; in assay [2] (setting [8]) it was over 10 µM; in assay [3] it was over 10 µM. The IC50 in assay [4] is over 10 µM.
In the case of `COc1cc(OC)cc(N(CC2CC2)c2ccc3ncc(-c4nnnn4C)nc3c2)c1` [Compound 83], the IC50 on FGFR1 (h) was over 1 µM; in assay [1] (setting [5]) it was over 10 µM; in assay [1] (setting [6]), over 10 µM; in assay [2] (setting [7]), over 10 µM; in assay [2] (setting [8]), over 10 µM; in assay [3], over 10 µM. Further, in assay [4], the IC50 is over 10 µM.
